# Tests used:
# [1] = biological target: T1, human c-Mpl-introduced Ba/F3 cell (Homo sapiens, UniProt P40238); experiment: Test Example 2: human c-Mpl-introduced Ba/F3 cell proliferative activity; type: cell-based; conditions: concentration exhibiting 30% proliferation; 100% = positive control (Example 315 of Patent Document 1) at 1 μM
# T1 construct: expressed in transfected cells
# T1 sequence (P40238 26-635): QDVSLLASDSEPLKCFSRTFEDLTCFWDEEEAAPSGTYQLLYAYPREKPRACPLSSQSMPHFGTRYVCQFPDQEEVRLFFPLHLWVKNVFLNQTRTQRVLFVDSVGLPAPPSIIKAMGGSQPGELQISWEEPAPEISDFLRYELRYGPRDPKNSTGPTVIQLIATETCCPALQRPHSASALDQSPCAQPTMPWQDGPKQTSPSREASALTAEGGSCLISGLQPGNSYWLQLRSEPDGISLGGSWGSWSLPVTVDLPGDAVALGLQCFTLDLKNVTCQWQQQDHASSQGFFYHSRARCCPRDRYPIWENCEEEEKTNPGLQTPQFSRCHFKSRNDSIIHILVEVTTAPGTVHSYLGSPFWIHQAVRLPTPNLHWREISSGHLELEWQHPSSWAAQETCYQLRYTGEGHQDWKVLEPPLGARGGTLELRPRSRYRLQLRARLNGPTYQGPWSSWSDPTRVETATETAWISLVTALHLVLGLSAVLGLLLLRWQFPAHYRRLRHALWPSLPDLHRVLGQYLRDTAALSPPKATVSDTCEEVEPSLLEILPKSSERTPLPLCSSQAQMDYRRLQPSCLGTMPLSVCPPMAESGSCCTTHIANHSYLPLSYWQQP
# In short: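 Ba/F3 cells stably expressing human c-Mpl seeded at 1×10^4 cells/well with test substance (100 nM to 10 μM final) in RPMI-1640/10% FBS, overnight at 37 °C. Cell number by WST-type kit absorbance at 450 nm after ~5 h; proliferation % relative to untreated (0%) and reference agonist at 1 μM (100%).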
# [2] = test system: pelvic nerve stimulation-induced elevation of intravesical pressure; experiment: Test Example 4: effect on pelvic nerve stimulation-induced elevation of intravesical pressure in anesthetized rats; type: in vivo, rat; conditions: 3 mg/kg intravenous; maximum effect within one hour; anesthetized SD female rats; pre-treatment = 100%
# Description: Test Example 4: Effect on Pelvic Nerve Stimulation-Induced Elevation of Intravesical Pressure in Anesthetized Rats
# The effect of the Example compounds of the present invention in the pelvic nerve electrical stimulation-induced elevation of intravesical pressure using rats as an action of nerve stimulation-dependent bladder contraction in vivo was measured by the following method. That is, SD female rats (Japan SLC, Inc.) were used and its lower abdomen was dissected at the midline under pentobarbital anesthesia (50 mg/kg ip). After ligating and cutting the ureter on both sides, a cannula (PE-50) for measuring the intravesical pressure was inserted into the bladder from the external urethral opening and fixed by a clip. After injecting about 200 μL of saline through the cannula that had been inserted into the bladder, the other side was connected to a pressure transducer to measure the intravesical pressure. Under a stereoscopic microscope observation, the pelvic nerve in the vicinity of the bladder was peeled and an electrode for nerve stimulation (unique Medical) was placed. The abdominal cavity was filled with mineral oil (MP BIOMEDICALS). After placing in a post-operative stabilization period, the pelvic nerve was subjected to electrical stimulation (stimulation voltage: 10 V, stimulation frequency: 8 Hz, pulse width: 0.3 msec, and stimulation time: 10 seconds) to elicit the elevation of intravesical pressure, using an electrical stimulator (Nihon Kohden). By repeating the electrical stimulation at an interval of 2 minutes while adjusting the voltage, the voltage was adjusted to elicit about 50% to 70% elevation of intravesical pressure elicited at 10 V. Thereafter, by repeating the electrical stimulation at an interval of 10 minutes, the increase in the intravesical pressure by electrical stimulation was stabilized three times or more, and the test substance (an administration amount of 3 mg/kg) was then administered from the catheter detained in the vein at a volume of 1 mL/kg, thus measuring an effect of the elevation of the intravesical pressure of the test substance for 1 hour. The test substance was dissolved in water supplemented with 10% dimethylsulfoxide and 10% Cremophor.
# The response was applied to a personal computer through a PowerLab (registered trademark) and analyzed by LabChart (registered trademark). The AUC of each elevation of the intravesical pressure was calculated, the intravesical pressure elevation rate (% of pre) after the treatment with the test substance was calculated by taking an average value of the values measured three times before the treatment with the test substance as 100%, and the maximum effect during a period within one hour after administration of the compound was considered as the effect of the test substance.
# The elevation rates (% of pre) of the intravesical pressure when some Example compounds were administered at 3 mg/kg are shown in Table 4.
Structure (SMILES),human c-Mpl-introduced Ba/F3 cell proliferative activity EC30 [1] [µM],Increase rate (% of pre) of intravesical pressure [2]
C[C@@H]1CCCN1Cc1sc(NC(=O)c2cnc(N3CCN(CCC(=O)O)[C@@H](C)C3)cn2)nc1-c1cc(Cl)cs1 [Example 142],4.7,199 % of pre
C[C@@H]1CCCN1Cc1sc(NC(=O)c2cnc(N3CCN(CCC(=O)O)CC3)cn2)nc1-c1cc(Cl)cs1 [Example 50],2.3,207 % of pre
C[C@@H]1CCCN1Cc1sc(NC(=O)c2cnc(N3CCN(CCC(=O)O)C[C@H]3C)cn2)nc1-c1cc(F)cc(C(F)(F)F)c1 [Example 140],>10,148 % of pre
C[C@@H]1CCCN1Cc1sc(NC(=O)c2cnc(N3CCN(CCC(=O)O)[C@@H](C)C3)cn2)nc1-c1cc(C(F)(F)F)cs1 [Example 95],3,239 % of pre
CC[C@@H]1CCCN1Cc1sc(NC(=O)c2cnc(N3CCN(CCC(=O)O)CC3)cn2)nc1-c1cccc(C(F)(F)F)c1 [Example 65],>10,128 % of pre
CC[C@@H]1CCCN1Cc1sc(NC(=O)c2cnc(N3CCN(CCC(=O)O)CC3)cn2)nc1-c1ccc(OC)c(C(F)(F)F)c1 [Example 42],>10,149 % of pre
Cc1cc(OC(F)(F)F)cc(-c2nc(NC(=O)c3cnc(N4CCN(CCC(=O)O)CC4)cn3)sc2CN2CCC[C@H]2C)c1 [Example 46],>10,126 % of pre
COc1c(F)cc(-c2nc(NC(=O)c3cnc(N4CCN(CCC(=O)O)CC4)cn3)sc2CN2CCC[C@H]2C)cc1C(F)(F)F [Example 72],>10,155 % of pre
CC[C@@H]1CCCN1Cc1sc(NC(=O)c2cnc(N3CCN(CCC(=O)O)C[C@@H]3C)cn2)nc1-c1cc(Cl)cs1 [Example 28],5.3,184 % of pre
CC[C@@H]1CCCN1Cc1sc(NC(=O)c2cnc(N3CCN(CCC(=O)O)C[C@H]3C)cn2)nc1-c1ccc(OC(C)C)c(C(F)(F)F)c1 [Example 135],>10,168 % of pre
CCC[C@@H]1CCCN1Cc1sc(NC(=O)c2cnc(N3CCN(CCC(=O)[O-])CC3)cn2)nc1-c1cccc(C(F)(F)F)c1.[Na+] [Example 124],>10,143 % of pre
C[C@@H]1CCCN1Cc1sc(NC(=O)c2cnc(N3CCN(CC(=O)O)C[C@H]3C)cn2)nc1-c1cc(F)cc(C(F)(F)F)c1 [Example 141],>10,175 % of pre
Cc1cc(OC(F)(F)F)cc(-c2nc(NC(=O)c3cnc(N4CCN(C(C)C(=O)O)CC4)cn3)sc2CN2CCC[C@H]2C)c1 (some centres unmarked) [Example 48],>10,121 % of pre
